The source of these data is patent US8841277B2, “Methods for treating non-small cell lung cancer using 5-azacytidine” (Celgene Corporation, priority 2009, dated 2014).

Where only a bound is given, the exact number is not on record here.

One series deals with H1299 cells. Nature of the series: Apoptosis (AnnexinV-FITC/7-AAD), H1299. It is filed as cell-based. The following applies: 0.3-10 μM. The text has this: (§1) For cell cycle distribution, cells were stained with the NIM-DAPI reagent (Beckman Coulter, Inc.; Fullerton, Calif.). For measurement of early- and late-apoptotic cell populations, cells were stained with AnnexinV-FITC and 7-AAD reagents (Beckman Coulter, Inc.). Samples were processed according to manufacturer's instructions and analyzed on a Cell Lab Quanta MPL flow cytometer (Beckman Coulter, Inc.). […] Data were also collected for untreated cells as control.

Series [1] has as its system DNMT1. Nature of the series: DNMT1 protein depletion, A549. The format is cell-based. Particulars: for DNMT1 protein levels: dose range. How it is done: (§2) For western analyses of protein levels, cells were washed with PBS and lysed with RIPA buffer (Cell Signaling Technology, Inc.; Danvers, Mass.) containing 350 mM NaCl and 0.1% SDS. Cell lysates were sonicated with two 5-second bursts under low amplitude (20%) using the Digital Sonic Dismembrator (Thermo Fisher Scientific, Inc.; Waltham, Mass.). Proteins were separated on 4-12% Bis-Tris NuPAGE gels (Life Technologies Corporation) and transferred to nitrocellulose membranes. DNMT1, phos-Histone-H2AX(Ser139), total Histone-H2AX, cleaved-PARP, p21, p53, and alpha-tubulin were detected using the Li-Cor Odyssey imaging system (Li-Cor Biotechnology; Lincoln, Nebr.), following incubation with the appropriate primary and secondary antibodies. The phos-Histone-H2AX(Ser139), cleaved-PARP, and p21 antibodies were from Cell Signaling Technology, Inc. The p53 and total Histone-H2AX (C-20) antibodies were from Santa Cruz Biotechnology, Inc. (Santa Cruz, Calif.). The alpha-tubulin and DNMT1 antibodies were purchased from EMD Chemicals, Inc. (Gibbstown, N.J.) and Abcam, Inc. (Cambridge, Mass.), respectively. The goat anti-Rabbit IRDye 680, goat anti-Mouse IRDye 800CW, and donkey anti-Goat IRDye 800CW secondary antibodies were from Li-Cor Biotechnology.
(§3) Reduced DNMT1 levels were detected in these cell lines as early as 4 hours after drug treatment (FIG. 17).

The subject of another series is H23 cells. Kind of series: Cell viability (CyQuant assay), H23. The following applies: 72 hours; for HillSlope / LogIC50 / IC50: H23 viability, best-fit value; for EC50 / IC50: Homo sapiens, NCI-H23; for EC50: H23, read-out: EC50 of effect on viability. The format is cell-based. As for the experimental part: (§4) Certain NSCLC cell lines (H460, H1299, A549, and H1975) were purchased from American Type Culture Collection (ATCC; Manassas, Va.). The H23NSCLC cell line was obtained from the National Cancer Institute (NCI; Bethesda, Md.). Cell lines were cultured in their respective media, as recommended by ATCC and NCI. AZA was manufactured at Aptuit (Greenwich, Conn.) for Celgene (Summit, N.J.), while DAC was purchased from Sigma-Aldrich (St. Louis, Mo.). In all experiments, cells were seeded 24 hours before drug treatment and incubated at 37° C./5% CO2, For cell viability assays, H460, H1299, A549, H23, and H1975 cells were seeded in triplicate at 1×10^3, 1×10^3, 1×10^3, 4×10^3, and 4×10^3 cells per well, respectively, in 96-well plates, using 200 μL of medium per well. Fresh drug was added every 24 hours by replacing medium with drug-containing medium. For all other assays, cells were seeded at 0.6-1.2×10^5 cells per well, in 6-well plates, using 4 mL of medium per well, with fresh drug added directly to the medium every 24 hours.
(§5) Cell viability was assessed using the CyQuant assay (Life Technologies Corporation; Carlsbad, Calif.). Fluorescence was measured with a spectrophotometer (Molecular Devices; Sunnyvale, Calif.), and EC50 values were calculated in Prism® version 5.01 (GraphPad Software, Inc.; La Jolla, Calif.), using results from three independent experiments.
(§6) The six data sets represent calculations of EC50 values from raw data using Prism®. The standard deviation among the three independent experiments was determined at each drug concentration. For some of the cell lines, Prism® was not able to calculate the EC50 for DAC. For those curves that an EC50 was available, the SE (Std. Error) was acceptable (SE of the logEC50 should be less than 0.5), meaning that the standard errors were not too large. The 95% Confidence Intervals for the EC50 were considered as a measure of error.

The test system of another series is H1975 cells. Kind of series: Cell viability (CyQuant assay), H1975. It is filed as cell-based. The following applies: 72 hours; for HillSlope / LogIC50 / IC50: H1975 viability, best-fit value; for EC50 / IC50: Homo sapiens, NCI-H1975; for EC50: H1975, read-out: EC50 of effect on viability. How it is done: as §4, §5, §6
Series [2] relates to DNMT1. Kind of series: DNMT1 protein depletion, H1299. Particulars: for DNMT1 protein levels: dose range. It is filed as cell-based. How it is done: as §2, §3
In a further series the test system is NSCLC cells. Kind of series: Western analysis of DNA damage and cell death markers, summary. Particulars: H460, A549, H1299 studies. The format is cell-based. As for the experimental part:
These studies also examined apoptosis using an assay for PARP cleavage. Cells studied included H460, A549, and H1299 cells.
as §2

A further series deals with A549 cells. Kind of series: Cell cycle distribution (NIM-DAPI), A549. It is filed as cell-based.
Description: These studies examined the cell cycle distribution of NSCLC cells treated with AZA or DAC using NIM-DAPI analysis.
as §1

The conditions of series [3]: administered at 15 mg/m^2; cited from earlier work.

Consider `Nc1ncn([C@@H]2O[C@H](CO)[C@@H](O)[C@H]2O)c(=O)n1` [AZA, 4-amino-1-β-D-ribofuranosyl-1,3,5-triazin-2(1H)-one], for which the “Early- and late-apoptotic cell populations (AnnexinV/7-AAD)” value with H1299 cells (48-hour treatment) is “dramatic increase in early-apoptotic (AnnexinV^+ 7-AAD^−) and late-apoptotic (AnnexinV^+ 7-AAD^+) cells”; with H1299 cells (72-hour treatment), “dramatic increase in early-apoptotic (AnnexinV^+ 7-AAD^−) and late-apoptotic (AnnexinV^+ 7-AAD^+) cells”. In addition, the DNMT1 protein levels entry with DNMT1 [1] (20 hours) and with DNMT1 [2] (20 hours) was “significantly reduced” throughout. Besides, the HillSlope in the series with H23 cells is −1.054; with H1975 cells it was −0.6352. For the same compound, the LogIC50 turned out to be 1.005 with H23 cells and 0.8897 in the series on H1975 cells. Further, the values for the EC50 with H23 cells and in the series with H1975 cells were 10.1 µM and 7.8 µM, respectively. Also, the half-inhibitory concentration (IC50) in the series on H23 cells is 10.1 µM; in the series with H1975 cells, 7.76 µM. Further, the “Induction of DNA damage and cell death markers, concentration comparison” value in the series on NSCLC cells is reported as “at lower concentrations than DAC”. Further, the “Cell cycle distribution (NIM DAPI)” value was “induced accumulation of cells in G2/M and Sub-G1” with A549 cells (48-hour treatment, 0.3-10 μM); “induced accumulation of cells in G2/M and Sub-G1” in the series with A549 cells (72-hour treatment, 0.3-10 μM); “induced accumulation of cells in G2/M and Sub-G1” in the series with A549 cells (summary of studies).
As for `Nc1ncn([C@H]2C[C@H](O)[C@@H](CO)O2)c(=O)n1` [DAC, 5-aza-2′-deoxycytidine], the “Early- and late-apoptotic cell populations (AnnexinV/7-AAD)” value in the series with H1299 cells (48-hour treatment) and with H1299 cells (72-hour treatment) was “very slight increase in these cell populations” throughout. Moreover, the DNMT1 depletion result in the series with DNMT1 [1] (0.3-10 μM, 24 h and 48 h (Example 5)) is “able to cause DNMT1 depletion”; in the series with DNMT1 [2] (0.3-10 μM, 48 h (Example 5)) it was “able to cause DNMT1 depletion”. Also, the “Relative potency in reducing DNMT1 levels” value in the series on DNMT1 [1] (20 hours) and with DNMT1 [2] (20 hours) was “more potent than AZA” throughout. In addition, the “Concentration of maximal reduction of DNMT1 levels” value in the series with DNMT1 [1] (20 hours, lowest concentration tested) was 0.05 µM. In addition, the DNMT1 protein levels entry in the series on DNMT1 [1] (20 hours) and in the series with DNMT1 [2] (20 hours) was “significantly reduced” in each case. Moreover, the Plasma levels in series [3] was 0.5 µM. Moreover, the HillSlope in the series with H23 cells was −0.3790; in the series on H1975 cells, −0.2958. For the same compound, the LogIC50 in the series with H23 cells stood at 1.268; with H1975 cells, 2.452. The values for the EC50 in the series on H23 cells and with H1975 cells were 18.5 µM and greater than 25 µM, respectively. The IC50 turned out to be 18.5 µM in the series on H23 cells and 283 µM with H1975 cells. For the same compound, the “Cell cycle distribution (NIM DAPI)” value is on record as “induced an increase of cells in G2/M” in the series on A549 cells (48-hour treatment, 0.3-10 μM); “induced an increase of cells in G2/M” in the series on A549 cells (72-hour treatment, 0.3-10 μM); “induced an increase of cells in G2/M” in the series with A549 cells (summary of studies).

Usually EC50 stands for the midpoint of the concentration-response curve. One may read the IC50 as the point on the concentration scale where inhibition reaches its midpoint. Read a low IC50 as inhibition by little substance.
